Laboratory results as given in US20190127366A1 (LifeSci Pharmaceuticals, Inc., priority 2015, published 2019).

Legend:
[1] = target: T1, human complement factor D (Homo sapiens, UniProt P00746); assay: In vitro enzyme inhibition (Z-Lys-SBzl/DTNB absorbance assay); type: biochemical; details: Complement Factor D (R&D Systems), substrate Z-Lys-SBzl, A405 nm; read-out: CFD IC50
T1 construct: purchased R&D Systems 1824-SE
Method in brief: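 Factor D (6.25 ng/μL before addition) preincubated 5 min RT with compound (8 points from 50 μM, 6-fold, 0.5% DMSO final) in 50 mM Tris/HCl pH 7.5, 1 M NaCl, then Z-Lys-SBzl/DTNB added (200 μM each before addition). A405 read kinetically every 30 s for 60 min; IC50 from variable-slope fit, controls with and without enzyme.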

[2] = system: alternative pathway (AP) hemolytic activity; assay: AP hemolysis inhibition assay; type: cell-based; details: Erythrocyte, 1 h; Normal Human Serum, chicken or rabbit erythrocytes, 60 min at 37° C., OD 414 nm
Method: The ability of the compounds disclosed herein to inhibit alternative pathway (AP) hemolytic activity was determined. Red blood cells (RBC), chicken or rabbit erythrocyctes (SbjBio), were washed three time using assay buffer containing 0.1% gelatin, 5 mM Veronal, 145 mM NaCl, 0.025% NaN3, 10 mM Mg-EGTA pH 7.3. In 100 μL reaction system, 1300 to 1500 ng/μL final concentration of Normal Human Serum (CompTech) was incubated with compound for 15 min at 37° C. Then 2×10^6 cells/well of chicken or rabbit erythrocytes in assay buffer were added and incubated for an additional 60 min at 37° C. Positive control (100% lysis) consists of serum and RBC, and negative control (0% lysis) consists of assay buffer and RBC only. Samples were centrifuged at 2000 g for 5 min, and supernatants collected. Optical density of the supernatant is monitored at 414 nm using Synergy 2 (BioTek). Percentage lysis in each sample is calculated relative to positive control (100% lysis).
Table 3 discloses the inhibitory activity of the compounds provided herein in the hemolysis assay.

T1 sequence (P00746 26-253): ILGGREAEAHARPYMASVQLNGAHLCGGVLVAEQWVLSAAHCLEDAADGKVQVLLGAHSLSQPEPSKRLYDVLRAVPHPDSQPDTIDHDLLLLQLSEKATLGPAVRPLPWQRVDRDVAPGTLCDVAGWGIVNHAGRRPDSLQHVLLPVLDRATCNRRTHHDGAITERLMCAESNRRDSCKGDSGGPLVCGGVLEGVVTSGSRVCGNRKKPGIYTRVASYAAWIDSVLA

Row | SMILES | IC50 [1] [nM] | EC50 [2] [nM]
1 | NC(=O)c1nn(CC(=O)N2[C@@H]3CC[C@@H](C3)[C@H]2C(=O)Nc2cccc(Cl)n2)c2ccccc12 [Example 1, 1-(2-((1R,3S,4S)-3-((6-chloropyridin-2-yl)carbamoyl)-2-azabicyclo[2.2.1]heptan-2-yl)-2-oxoethyl)-1H-indazole-3-carboxamide] | < 100 | 100 to 1000
2 | NC(=O)n1cc(NC(=O)N2[C@@H]3CC[C@@H](C3)[C@H]2C(=O)Nc2cccc(Cl)n2)c2ccccc21 [Example 156, (1R,3S,4S)-N2-(1-carbamoyl-1H-indol-3-yl)-N3-(6-chloropyridin-2-yl)-2-azabicyclo[2.2.1]heptane-2,3-dicarboxamide] | 100 to 1000 | 100 to 1000
3 | CC(=O)c1nn(CC(=O)N2CC[C@H]2C(=O)NCc2cccc(Cl)c2F)c2ccccc12 [Example 190, (S)-1-(2-(3-acetyl-1H-indazol-1-yl)acetyl)-N-(3-chloro-2-fluorobenzyl)azetidine-2-carboxamide] | < 100 | < 100
4 | NC(=O)c1nn(CC(=O)N2[C@H](C(=O)NCc3cccc(Cl)c3F)C[C@@H]3CCC[C@@H]32)c2cc(F)ccc12 [Example 167, 1-(2-((2S,3aS,6aS)-2-((3-chloro-2-fluorobenzyl)carbamoyl)hexahydrocyclopenta[b]pyrrol-1(2H)-y1)-2-oxoethyl)-6-fluoro-1H-indazole-3-carboxamide] | < 100 | 100 to 1000
5 | NC(=O)c1nn(CC(=O)N2C3CCC(C3)[C@H]2C(=O)Nc2cccc(Cl)n2)c2ccccc12 (stereo partly drawn) [Example 10, 1-(2-((3S)-3-((6-chloropyridin-2-yl)carbamoyl)-2-azabicyclo[2.2.1]heptan-2-yl)-2-oxoethyl)-1H-indazole-3-carboxamide] | < 100 | 100 to 1000
6 | NC(=O)c1nn(CC(=O)N2[C@@H]3CC[C@@H](C3)[C@H]2C(=O)Nc2cccc(Cl)n2)c2cc(CO)ccc12 [Example 125, 1-(2-((1R,3S,4S)-3-((6-chloropyridin-2-yl)carbamoyl)-2-azabicyclo[2.2.1]heptan-2-yl)-2-oxoethyl)-6-(hydroxymethyl)-1H-indazole-3-carboxamide] | 100 to 1000 | 100 to 1000
7 | NC(=O)c1nn(CC(=O)N2[C@@H]3CC[C@@H](C3)[C@H]2C(=O)Nc2cc(C(=O)O)cc(Cl)n2)c2ccccc12 [Example 104, 2-((1R,3S,4S)-2-(2-(3-carbamoyl-1H-indazol-1-yl)acetyl)-2-azabicyclo[2.2.1]heptane-3-carboxamido)-6-chloroisonicotinic acid] | < 100 | < 100
8 | NC(=O)c1nn(CC(=O)N2[C@@H]3CC[C@@H](C3)[C@H]2C(=O)Nc2cncc(Cl)n2)c2ccccc12 [Example 59, 1-(2-((1R,3S,4S)-3-((6-chloropyrazin-2-yl)carbamoyl)-2-azabicyclo[2.2.1]heptan-2-yl)-2-oxoethyl)-1H-indazole-3-carboxamide] | < 100 | 100 to 1000
9 | NC(=O)c1nn(CC(=O)N2CC[C@H]2C(=O)NCc2cccc(Cl)c2F)c2ccccc12 [Example 185, (S)-1-(2-(2-((3-chloro-2-fluorobenzyl)carbamoyl)azetidin-1-yl)-2-oxoethyl)-1H-indazole-3-carboxamide] | < 100 | < 100
10 | Cc1ccc2c(c1)c(C(N)=O)nn2CC(=O)N1[C@H](C(=O)Nc2cccc(Cl)n2)C[C@@H]2CCC[C@@H]21 [Example 168, 1-(2-((2S,3aS,6aS)-2-((6-chloropyridin-2-yl)carbamoyl)hexahydrocyclopenta[b]pyrrol-1(2H)-yl)-2-oxoethyl)-5-methy1-1H-indazole-3-carboxamide] | < 100 | 100 to 1000
11 | NC(=O)c1nn(CC(=O)N2CC[C@H]2C(=O)NCc2cccc(Cl)c2F)c2cnccc12 [Example 189, (S)-1-(2-(2-((3-chloro-2-fluorobenzyl)carbamoyl)azetidin-1-yl)-2-oxoethyl)-1H-pyrazolo[3,4-c]pyridine-3-carboxamide] | < 100 | 100 to 1000
12 | NC(=O)c1nn(CC(=O)N2C(C(=O)NCc3cccc(Cl)c3F)[C@@H]3C[C@@H](O)[C@H]2[C@H]3O)c2ccccc12 (stereo partly drawn) [Example 152, 1-(2-((1S,4S,6R,7S)-3-((3-chloro-2-fluorobenzyl)carbamoyl)-6,7-dihydroxy-2-azabicyclo[2.2.1]heptan-2-yl)-2-oxoethyl)-1H-indazole-3-carboxamide] | 100 to 1000 | 100 to 1000
13 | NC(=O)c1nn(CC(=O)N2[C@H](C(=O)Nc3cccc(Cl)n3)C[C@@H]3CCC[C@@H]32)c2ccc(F)cc12 [Example 169, 1-(2-((2S,3aS,6aS)-2-((6-chloropyridin-2-yl)carbamoyl)hexahydrocyclopenta[b]pyrrol-1(2H)-yl)-2-oxoethyl)-5-fluoro-1H-indazole-3-carboxamide] | 100 to 1000 | 100 to 1000
14 | NC(=O)c1nn(CC(=O)N2[C@H](C(=O)NCc3cccc(Cl)c3F)C[C@@H]3CCC[C@@H]32)c2ccccc12 [Example 157, 1-(2-((2S,3aS,6aS)-2-((3-chloro-2-fluorobenzyl)carbamoyl)hexahydrocyclopenta[b]pyrrol-1(2H)-yl)-2-oxoethyl)-1H-indazole-3-carboxamide] | < 100 | 100 to 1000
15 | COc1ccc(Cl)nc1NC(=O)[C@@H]1[C@H]2CC[C@H](C2)N1C(=O)Cn1nc(C(N)=O)c2ccccc21 [Example 96, 1-(2-((1R,3S,4S)-3-((6-chloro-3-methoxypyridin-2-yl)carbamoyl)-2-azabicyclo[2.2.1]heptan-2-yl)-2-oxoethyl)-1H-indazole-3-carboxamide] | < 100 | < 100
16 | NC(=O)c1nn(CC(=O)N2CCCC[C@H]2C(=O)Nc2cccc(Cl)n2)c2ccccc12 [Example 21, (S)-1-(2-(2-((6-chloropyridin-2-yl)carbamoyl)piperidin-1-yl)-2-oxoethyl)-1H-indazole-3-carboxamide] | 100 to 1000 | 1000 to 10000
17 | COC(=O)C(NC(=O)[C@@H]1[C@H]2CC[C@H](C2)N1C(=O)Cn1nc(C(N)=O)c2ccccc21)c1cccc(Cl)c1F (stereo partly drawn) [Example 136, methyl 2-((1R,3S,4S)-2-(2-(3-carbamoyl-1H-indazol-1-yl)acetyl)-2-azabicyclo[2.2.1]heptane-3-carboxamido)-2-(3-chloro-2-fluorophenyl)acetate] | 1000 to 10000 | –
18 | CN1CCN(C(=O)Cn2nc(C(N)=O)c3ccccc32)[C@H](C(=O)Nc2cccc(Cl)n2)C1 [Example 28, (S)-1-(2-(2-((6-chloropyridin-2-yl)carbamoyl)-4-methylpiperazin-1-yl)-2-oxoethyl)-1H-indazole-3-carboxamide] | 1000 to 10000 | –
19 | Cc1ccc2c(c1)c(C(N)=O)nn2CC(=O)N1[C@H](C(=O)NCc2cccc(Cl)c2F)C[C@@H]2CCC[C@@H]21 [Example 165, 1-(2-((2S,3aS,6aS)-2-((3-chloro-2-fluorobenzyl)carbamoyl)hexahydrocyclopenta[b]pyrrol-1(2H)-yl)-2-oxoethyl)-5-methyl-1H-indazole-3-carboxamide] | 100 to 1000 | –
20 | CC(O)c1nn(CC(=O)N2CC[C@H]2C(=O)NCc2cccc(Cl)c2F)c2ccccc12 (stereo partly drawn) [Example 193, (2S)-N-(3-chloro-2-fluorobenzyl)-1-(2-(3-(1-hydroxyethyl)-1H-indazol-1-yl)acetyl)azetidine-2-carboxamide] | 1000 to 10000 | –
21 | COC(=O)Cc1ccc2c(C(N)=O)nn(CC(=O)N3[C@@H]4CC[C@@H](C4)[C@H]3C(=O)NCc3cccc(Cl)c3F)c2c1 [Example 126, methyl 2-(3-carbamoyl-1-(2-((1R,3S,4S)-3-((3-chloro-2-fluorobenzyl)carbamoyl)-2-azabicyclo[2.2.1]heptan-2-yl)-2-oxoethyl)-1H-indazol-6-yl)acetate] | 1000 to 10000 | –
22 | COC(=O)c1ccc(Cl)c(F)c1CNC(=O)[C@@H]1[C@H]2CC[C@H](C2)N1C(=O)Cn1nc(C(N)=O)c2ccccc21 [Example 116, methyl 2-(((1R,3S,4S)-2-(2-(3-carbamoyl-1H-indazol-1-yl)acetyl)-2-azabicyclo[2.2.1]heptane-3-carboxamido)methyl)-4-chloro-3-fluorobenzoate] | 1000 to 10000 | –
23 | NC(=O)c1nn(CC(=O)N2[C@@H]3CC[C@@H](C3)[C@H]2C(=O)NCc2cccc(Cl)c2F)c2cc(CCO)ccc12 [Example 129, 1-(2-((1R,3S,4S)-3-((3-chloro-2-fluorobenzyl)carbamoyl)-2-azabicyclo[2.2.1]heptan-2-yl)-2-oxoethyl)-6-(2-hydroxyethyl)-1H-indazole-3-carboxamide] | 1000 to 10000 | –
24 | NC(=O)c1nn(CC(=O)N2[C@H](C(=O)NCc3cccc(Cl)n3)C[C@@H]3CCC[C@@H]32)c2ccccc12 [Example 160, 1-(2-((2S,3aS,6aS)-2-(((6-chloropyridin-2-yl)methyl)carbamoyl)hexahydrocyclopenta[b]pyrrol-1(2H)-yl)-2-oxoethyl)-1H-indazole-3-carboxamide] | 1000 to 10000 | –
